Experimental findings from patent publication US20110319392A1, “Thiazole Sulfonamide And Oxazole Sulfonamide Kinase Inhibitors” (priority 2009, published 2011) are described below.

One test addresses T1, ErbB2 (Homo sapiens, UniProt P04626).
T1 construct: made in house; host or cells: baculovirus expression system
Kind of test: ErbB-2 substrate phosphorylation assay (HTRF). The test is classed as biochemical. The protocol:
(§1) Compounds of the present invention were tested for EGFR and ErbB-2 protein tyrosine kinase inhibitory activity in substrate phosphorylation assays using enzymes purified from a baculovirus expression system. Reagent production was conducted essentially as described in Brignola, P. S., et al, (2002) J. Biol. Chem. 277(2):1576-1585.
(§2) The method measures the ability of the isolated enzyme to catalyse the transfer of the gamma-phosphate from ATP onto the tyrosine residue of a biotinylated synthetic peptide referenced “Peptide C” in Brignola, P. S., et al, (2002) J. Biol. Chem. 277(2):1576-1585. The extent of tyrosine phosphorylation was measured using an anti-phosphotyrosine antibody, and quantified by homogenous time-resolved fluorescence (HTRF).
(§3) Reactions were performed in black 384-well polystyrene flat-bottom plates in a final volume of 20 μL. Assays were performed by adding 10 μL of each of the following solutions, Substrate Mix and Enzyme Mix: The Substrate Mix contained 100 mM 3-[N-morpholino]propanesulfonic acid (MOPS) (pH 7.5), 2 mM MnCl2, 20 μM ATP, 0.01% Tween-20, 0.1 mg/mL (BSA), 0.8 uM peptide substrate, and 1 mM dithiothreitol. The Enzyme Mix contained 100 mM MOPS (pH7.5); 0.01% Tween-20; 0.1 mg/mL BSA, and either 0.8 nM EGFR, 10 nM ErbB2, or 1 nM ErbB4. The Enzyme Mix was added to the compound plates and the plates were incubated at 20° C. for 1 hr. The reactions were then started by adding the Substrate Mix.
(§4) After initiating the reaction with the method described above, the reactions were allowed to proceed for 90 minutes at 20° C. The reactions were then terminated by the addition of 20 μL 100 mM EDTA to each well. 40 μL/well of HTRF detection mix were added to the assay plates. The final concentrations of the detection reagents were: 100 mM HEPES (pH7.5), 0.1 mg/mL BSA, 15 nM streptavidin-labeled allophycocyanin (PerkinElmer), and 1 nM europium-labeled anti-phosphotyrosine antibody (Perkin Elmer). Assay plates were left unsealed and were counted in a Wallac Multilabel Counter 1420 (PerkinElmer).
(§5) Compounds under analysis were dissolved in dimethylsulfoxide (DMSO) to 1.0 mM and serially diluted 1 to 3 with DMSO through twelve dilutions. 1 μL of each concentration was transferred to the corresponding well of an assay plate. This creates a final compound concentration range from 0.00027 to 47.6 μM.
(§6) The data for dose responses were plotted as % Inhibition calculated with the data reduction formula 100*(1-(U1−C2)/(C1−C2)) versus concentration of compound where U1 is the unknown value, C1 is the average control value obtained for 4.76% DMSO, and C2 is the average control value obtained for 0.035 M EDTA. Data were fitted with a curve described by:
(§7) where Vmax is the upper asymptote, Y2 is the Y intercept, and K is the IC50. The results for each compound were recorded as pIC50s, calculated as follows: […]

A further test deals with Colo205 tumor cells. Kind of test: Cell growth inhibition assay (CellTiter-Glo), Colo205. The test is classed as cell-based, Human. The note with it: Homo sapiens, COLO 205, 72 h; 3 days incubation. The protocol: (§8) Human breast tumor cells (BT474) were cultured in RPMI (Mediatech […]), containing 10% FBS (JRH Biosciences 12176) and 1% penicillin-streptomycin (Invitrogen 15140). Human head and neck tumor cells (HN5) were cultured in high glucose DMEM (Mediatech 50-013-PB) containing 10% FBS and 1% penicillin-streptomycin. Human colon tumor cells (Colo205) were cultured in RPMI (Mediatech 50-020-PB) containing 10% FBS and 1% penicillin-streptomycin. Human melanoma cancer cells (SK-MEL-28) were cultured in EMEM with nonessential amino acids (Mediatech 50-011-PB) containing 10% FBS, 1% sodium pyruvate (JT Baker 3354-04), and 1% penicillin-streptomycin. Human melanoma cancer cells (A375P F11s) were cultured in RPMI (Mediatech 50-020-PB) containing 10% FBS, 1% sodium pyruvate, and 1% penicillin-streptomycin. Human colon cancer cells (HT-29) were cultured in high glucose DMEM (Mediatech 50-013-PB) containing 10% FBS and 1% penicillin-streptomycin. Human melanoma cancer cells (SK-MEL-3) were cultured in McCoy's 5A (50-025-PB) containing 15% FBS, and 1% penicillin-streptomycin. All cell lines were maintained at 37° C. in a humidified 5% CO2, 95% air incubator. Cells were harvested using trypsin/EDTA (Invitrogen 25200), counted using a haemocytometer, and plated. For 96-well assays (using white full-area NUNC plates cat. #136102), cells were plated in 105 μL at the following densities (cells/well): HNS, 500; Colo 205, 500; SK-MEL-28, 500; A375P F11s, 500; HT-29, 500; SK-MEL-3, 500; and BT474, 3000. For 384-well assays (white full-area NUNC plates, cat. #781080), cells were plated in 48 μL at the following densities (cells/well): HNS, 500; Colo205, 500; SK-MEL-28, 500; A375P F11s, 500; HT-29, 500; SK-MEL-3, 500; and BT474, 2000.
(§9) The next day, compounds were diluted as follow: For 96-well assays, 13.5 μL of compound in DMSO were diluted using nine (9) serial 1:3 dilutions of 4.5 μL in 9 of DMSO. Medium (270 μL/well of RPMI with 10% FBS and 1% penicillin-streptomycin) was added to the plates. Aliquots (7 μL) were added to cells in the final assay giving a final DMSO concentration of 0.2%. For 384-well assays, 15 μL of compound in DMSO were diluted using nine (9) serial 1:3 dilutions of 5 μL in 10 μL of DMSO, followed by a further dilution of 5 μL of compound with 95 μL of medium, of which 2 μL were added to cells in the final assay giving a final DMSO concentration of 0.2%. Cells were incubated at 37° C., 5% CO2 for 3 days.
(§10) Total ATP was measured (as a surrogate estimate of cell number) using CellTiter-Glo® reagent (Promega G7571). Briefly, plates were removed from the incubator and allowed to equilibrate to room temperature for 30 minutes. CellTiter-Glo® (25 μL or 55 μL for 384-well or 96-well assays, respectively) reagent was added to each well and plates were shaken on an orbital plate shaker for 2 minutes. Plates were incubated without shaking for a further 30 minutes and read on an LJL Analyst GT reader in luminometer mode with an integration time of 0.5 seconds per well. Percent inhibition of cell growth was calculated relative to DMSO vehicle-treated control wells. Concentration of compound required to give 50% inhibition of vehicle-treated control cell growth (IC50) was interpolated using a 4-parameter fit for determining IC50 using the following equation: Y=A +((B−A)/(1+((C/X)̂D))) where […].

A further test concerns SK-MEL-28 tumor cells. Kind of test: Cell growth inhibition assay (CellTiter-Glo), SK-MEL-28. It counts as cell-based, Human. The note with it: Homo sapiens, SK-MEL-28, 72 h; 3 days incubation. The protocol:
as §8, §9, §10

The target in a further test is B-Raf (Homo sapiens, UniProt P15056). Kind of test: B-Raf Accelerated MEK ATPase assay (BRAMA), Method A or B. The test is classed as biochemical. Conditions: Method B: final MEK 150 nM, single end point read. The protocol:
Compounds of the present invention were tested for B-Raf protein serine kinase inhibitory activity in a B-Raf Accelerated MEK ATPase assay (BRAMA). The BRAMA assay is a high sensitivity assay which measures an intrinsic MEK-mediated ATP hydrolysis uncoupled from downstream ERK phosphorylation by coupling the formation of ADP to NADH oxidation through the enzymes pyruvate kinase and lactate dehydrogenase. When ADP production is initiated by addition of catalytic amounts of an activated Raf enzyme and non-phosphorylated MEK, one observes robust ADP production concomitant with Raf-mediated phosphorylation of MEK.
Method A: Specific details of the assay are disclosed in: C. Rominger, M. Schaber, E. May. Assay for B-Raf Activity Based on Intrinsic MEK ATPase Activity. Statutory Invention Registration 11/084,993 (March, 2005). Method B: The method is the same as method A, but includes the following changes: 1) the assay was performed with a final MEK concentration of 150 nM and 2) the assay was read as single end point instead of a kinetic read.

The next test addresses T2, EGFR (Homo sapiens, UniProt P00533).
T2 construct: made in house; host or cells: baculovirus expression system
Kind of test: EGFR substrate phosphorylation assay (HTRF). It counts as biochemical. The method, then: as §1, §2, §3, §4, §5, §6, §7

Some results are limits rather than exact numbers.

T1 sequence (P04626 23-1255): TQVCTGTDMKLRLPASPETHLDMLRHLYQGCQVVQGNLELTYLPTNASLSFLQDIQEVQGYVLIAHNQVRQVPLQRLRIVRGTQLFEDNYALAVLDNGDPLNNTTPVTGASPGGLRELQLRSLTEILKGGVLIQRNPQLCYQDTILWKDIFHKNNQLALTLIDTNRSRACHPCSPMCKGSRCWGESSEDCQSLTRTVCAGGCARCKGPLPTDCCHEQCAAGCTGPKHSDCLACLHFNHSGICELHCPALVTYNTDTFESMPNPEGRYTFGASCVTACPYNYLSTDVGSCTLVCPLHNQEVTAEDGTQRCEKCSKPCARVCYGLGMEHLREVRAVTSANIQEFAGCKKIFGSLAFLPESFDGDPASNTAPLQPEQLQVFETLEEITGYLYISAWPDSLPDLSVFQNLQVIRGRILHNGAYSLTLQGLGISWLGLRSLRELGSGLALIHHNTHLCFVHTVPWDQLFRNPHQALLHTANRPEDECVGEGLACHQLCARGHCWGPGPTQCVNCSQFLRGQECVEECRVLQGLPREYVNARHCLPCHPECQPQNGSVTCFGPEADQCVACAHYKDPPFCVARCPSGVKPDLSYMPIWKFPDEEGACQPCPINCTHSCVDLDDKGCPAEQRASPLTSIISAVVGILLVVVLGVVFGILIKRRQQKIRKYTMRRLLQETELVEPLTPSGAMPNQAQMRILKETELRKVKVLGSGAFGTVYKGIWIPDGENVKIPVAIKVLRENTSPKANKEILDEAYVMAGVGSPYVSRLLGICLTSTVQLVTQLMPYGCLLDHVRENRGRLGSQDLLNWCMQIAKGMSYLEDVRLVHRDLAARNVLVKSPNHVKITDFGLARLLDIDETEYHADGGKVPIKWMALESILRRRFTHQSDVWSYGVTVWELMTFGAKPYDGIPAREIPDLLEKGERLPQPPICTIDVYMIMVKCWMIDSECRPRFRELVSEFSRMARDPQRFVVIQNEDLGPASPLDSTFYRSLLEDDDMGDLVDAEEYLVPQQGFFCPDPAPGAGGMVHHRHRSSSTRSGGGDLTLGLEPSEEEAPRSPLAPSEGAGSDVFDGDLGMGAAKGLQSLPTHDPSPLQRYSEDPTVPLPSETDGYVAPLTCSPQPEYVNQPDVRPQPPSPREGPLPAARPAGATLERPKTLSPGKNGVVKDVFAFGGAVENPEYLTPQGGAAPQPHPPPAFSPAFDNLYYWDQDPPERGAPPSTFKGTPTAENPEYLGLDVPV
B-Raf, sequence (P15056 whole entry): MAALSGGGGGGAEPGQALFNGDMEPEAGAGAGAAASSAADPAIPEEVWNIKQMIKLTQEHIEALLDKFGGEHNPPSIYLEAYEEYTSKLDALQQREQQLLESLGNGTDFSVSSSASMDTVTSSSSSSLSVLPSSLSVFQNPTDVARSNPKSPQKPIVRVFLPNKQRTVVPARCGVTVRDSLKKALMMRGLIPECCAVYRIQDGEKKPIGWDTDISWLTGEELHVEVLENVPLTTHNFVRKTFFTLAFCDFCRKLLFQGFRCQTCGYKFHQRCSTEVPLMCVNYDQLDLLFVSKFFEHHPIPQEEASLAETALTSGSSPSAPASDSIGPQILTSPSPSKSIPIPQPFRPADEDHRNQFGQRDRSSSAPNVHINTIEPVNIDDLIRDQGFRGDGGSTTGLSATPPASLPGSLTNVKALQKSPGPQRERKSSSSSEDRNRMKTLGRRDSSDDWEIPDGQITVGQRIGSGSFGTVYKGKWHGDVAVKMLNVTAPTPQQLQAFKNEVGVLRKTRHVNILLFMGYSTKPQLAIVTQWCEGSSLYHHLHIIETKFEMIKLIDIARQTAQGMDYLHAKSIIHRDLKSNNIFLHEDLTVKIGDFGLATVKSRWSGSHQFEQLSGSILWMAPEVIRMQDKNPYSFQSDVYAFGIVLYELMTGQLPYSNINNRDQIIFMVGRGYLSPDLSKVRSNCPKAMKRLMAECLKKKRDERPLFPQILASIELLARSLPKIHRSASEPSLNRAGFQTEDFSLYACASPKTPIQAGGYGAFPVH
T2 sequence (P00533 25-1210): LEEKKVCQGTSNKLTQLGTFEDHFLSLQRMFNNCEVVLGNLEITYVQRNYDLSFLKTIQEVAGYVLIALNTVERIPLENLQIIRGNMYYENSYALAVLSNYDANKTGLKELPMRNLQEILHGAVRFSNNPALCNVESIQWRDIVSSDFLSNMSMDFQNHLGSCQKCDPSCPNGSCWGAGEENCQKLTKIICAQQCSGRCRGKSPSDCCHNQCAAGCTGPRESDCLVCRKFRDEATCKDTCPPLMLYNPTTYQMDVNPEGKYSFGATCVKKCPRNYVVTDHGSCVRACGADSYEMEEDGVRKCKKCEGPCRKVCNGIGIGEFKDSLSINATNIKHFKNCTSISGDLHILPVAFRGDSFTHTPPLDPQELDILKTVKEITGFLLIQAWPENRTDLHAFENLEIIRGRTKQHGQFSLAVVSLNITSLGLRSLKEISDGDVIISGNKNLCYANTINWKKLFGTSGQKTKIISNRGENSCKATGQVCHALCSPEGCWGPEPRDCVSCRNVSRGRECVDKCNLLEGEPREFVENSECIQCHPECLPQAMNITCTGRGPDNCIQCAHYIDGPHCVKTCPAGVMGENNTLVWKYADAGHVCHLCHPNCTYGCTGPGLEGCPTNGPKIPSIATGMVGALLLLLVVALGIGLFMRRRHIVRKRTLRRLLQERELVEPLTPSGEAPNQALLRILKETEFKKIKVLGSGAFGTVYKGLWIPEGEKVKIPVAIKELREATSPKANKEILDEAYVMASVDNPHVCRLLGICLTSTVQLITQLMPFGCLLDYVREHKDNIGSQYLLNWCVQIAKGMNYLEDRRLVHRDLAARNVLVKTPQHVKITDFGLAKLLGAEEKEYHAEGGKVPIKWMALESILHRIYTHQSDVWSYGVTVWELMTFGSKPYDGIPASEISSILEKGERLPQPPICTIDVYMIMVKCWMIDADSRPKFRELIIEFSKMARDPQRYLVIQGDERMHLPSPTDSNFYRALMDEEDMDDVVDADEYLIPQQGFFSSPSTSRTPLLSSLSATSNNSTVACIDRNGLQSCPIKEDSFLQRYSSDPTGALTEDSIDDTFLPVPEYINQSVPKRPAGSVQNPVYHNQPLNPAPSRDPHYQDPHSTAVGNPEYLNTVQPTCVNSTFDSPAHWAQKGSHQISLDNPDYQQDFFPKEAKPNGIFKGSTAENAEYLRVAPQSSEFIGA

`CCc1nc(-c2cccc(CNS(=O)(=O)c3ccccc3)c2)c(-c2ccnc(Nc3ccc(N4CCN(CCS(C)(=O)=O)CC4)c(F)c3)n2)s1` [Example 35]: the IC50 is 0.1 to 1 µM against ErbB2; above 1 µM in the test on Colo205 tumor cells; above 1 µM in the test with SK-MEL-28 tumor cells; 0.1 to 1 µM at B-Raf; 0.1 to 1 µM at EGFR.

Regarding `COc1ccc(Nc2nccc(-c3sc(C(C)C)nc3-c3cccc(NS(=O)(=O)Cc4ccccc4)c3)n2)cc1N1CCN(CCS(C)(=O)=O)CC1` [Example 37], the IC50 at ErbB2 was below 0.1 µM; with Colo205 tumor cells, above 1 µM; with SK-MEL-28 tumor cells, above 1 µM; on B-Raf, 0.1 to 1 µM; against EGFR, below 0.1 µM.

Take `CC(C)c1nc(-c2cccc(NS(=O)(=O)c3cn(C)nc3C(F)(F)F)c2)c(-c2ccnc(Nc3ccc(N4CCOCC4)nc3)n2)s1` [Example 40]: the half-maximal inhibitory concentration (IC50) is above 1 µM on ErbB2; above 1 µM with Colo205 tumor cells; above 1 µM in the test on SK-MEL-28 tumor cells; 0.1 to 1 µM against B-Raf; above 1 µM at EGFR.

Take `Cc1[nH]c(=O)[nH]c(=O)c1S(=O)(=O)Nc1cccc(-c2nc(C(C)C)sc2-c2ccnc(Nc3ccc(N4CCOCC4)nc3)n2)c1` [Example 41]: the half-maximal inhibitory concentration (IC50) against ErbB2 is above 1 µM; with Colo205 tumor cells, above 1 µM; with SK-MEL-28 tumor cells it was above 1 µM; against B-Raf, 0.1 to 1 µM; against EGFR, above 1 µM.

For the compound `COc1cc(N2CCN(CCS(C)(=O)=O)CC2)c(C)cc1Nc1nccc(-c2sc(C(C)C)nc2-c2cccc(NS(=O)(=O)c3cn(C)cn3)c2)n1` [Example 43], the IC50 against ErbB2 was 0.1 to 1 µM; with Colo205 tumor cells it was above 1 µM; in the test on SK-MEL-28 tumor cells, above 1 µM; against B-Raf, 0.1 to 1 µM; against EGFR it was above 1 µM.

On to `COc1cc(N2CCN(CCS(C)(=O)=O)CC2)c(C)cc1Nc1nccc(-c2sc(C(C)C)nc2-c2cccc(NS(=O)(=O)c3c(F)cccc3F)n2)n1` [Example 45], for which the concentration for half-maximal inhibition (IC50) was below 0.1 µM at ErbB2; 0.1 to 1 µM in the test with Colo205 tumor cells; 0.1 to 1 µM in the test with SK-MEL-28 tumor cells; 0.1 to 1 µM on B-Raf; below 0.1 µM against EGFR.

`COc1cc(N2CCN(CCS(C)(=O)=O)CC2)c(C)cc1Nc1nccc(-c2sc(C(C)C)nc2-c2cncc(NS(=O)(=O)c3c(F)cccc3F)c2)n1` [Example 48]: the 50% inhibitory concentration (IC50) against ErbB2 was below 0.1 µM; with Colo205 tumor cells, below 0.1 µM; in the test on SK-MEL-28 tumor cells, 0.1 to 1 µM; against B-Raf, 0.1 to 1 µM; at EGFR, above 1 µM.

For `COc1cc(N2CCN(CCS(C)(=O)=O)CC2)c(C)cc1Nc1nccc(-c2sc(C(C)C)nc2-c2cccc(NS(=O)(=O)c3cccs3)c2)n1` [Example 50], the IC50 against ErbB2 was below 0.1 µM; in the test with Colo205 tumor cells, below 0.1 µM; with SK-MEL-28 tumor cells, 0.1 to 1 µM; at B-Raf, below 0.1 µM; on EGFR it was below 0.1 µM.

For `COc1cc(N2CCN(CCS(C)(=O)=O)CC2)c(C)cc1Nc1nccc(-c2sc(C(C)C)nc2-c2cccc(NS(=O)(=O)c3cccnc3)c2)n1` [Example 54], the IC50 was below 0.1 µM on ErbB2; below 0.1 µM with Colo205 tumor cells; below 0.1 µM with SK-MEL-28 tumor cells; below 0.1 µM against B-Raf; 0.1 to 1 µM against EGFR.

For `COc1cc(N2CCN(CCS(C)(=O)=O)CC2)c(C)cc1Nc1nccc(-c2sc(C(C)C)nc2-c2cccc(NS(=O)(=O)c3ccco3)c2)n1` [Example 55], the IC50 against ErbB2 is below 0.1 µM; in the test with Colo205 tumor cells, below 0.1 µM; in the test on SK-MEL-28 tumor cells, 0.1 to 1 µM; on B-Raf, below 0.1 µM; at EGFR, below 0.1 µM.

In the case of `O=S(=O)(Nc1cc(-c2nc(N3CCCC3)oc2-c2ccnc(Nc3ccc(N4CCOCC4)c(F)c3)n2)ccc1F)c1ccccc1F` [Example 59], the IC50 on ErbB2 is above 1 µM; in the test on Colo205 tumor cells, 0.1 to 1 µM; with SK-MEL-28 tumor cells, 0.1 to 1 µM; against B-Raf it was below 0.1 µM; against EGFR, above 1 µM.

For the compound `COc1cc(N2CCC(CCS(C)(=O)=O)CC2)c(C)cc1Nc1nccc(-c2sc(N3CCCC3)nc2-c2cccc(NS(=O)(=O)c3c(F)cccc3F)c2)n1` [Example 137], the IC50 on ErbB2 was above 1 µM; in the test on Colo205 tumor cells it was below 0.1 µM; in the test on SK-MEL-28 tumor cells, 0.1 to 1 µM; against B-Raf, 0.1 to 1 µM.

`COc1ccc(S(C)(=O)=O)cc1Nc1nccc(-c2sc(N3CCOCC3)nc2-c2cccc(NS(=O)(=O)c3c(F)cccc3F)c2OC)n1` [Example 168]: the concentration for half-maximal inhibition (IC50) is above 1 µM against ErbB2, above 1 µM in the test on SK-MEL-28 tumor cells, below 0.1 µM at B-Raf and above 1 µM at EGFR.
